Molecules are shown by their SMILES. Some results are limits rather than exact numbers.

Experiment [1] deals with Diamondback Moth (Plutella xylostella). The experiment in a line: Insecticidal test on diamondback moth (Plutella xylostella). The class given is in vivo. The note with it: 144 h, cabbage leaf immersed, second-instar larvae, counted 6 days after release, 25° C. The protocol: Insecticidal Test on Diamondback Moth (Plutella xylostella)
A piece of cabbage leaf was immersed for 30 seconds in a liquid chemical prepared by diluting a test compound to a prescribed concentration. After air-drying, the piece was put into a 7-cm polyethylene cup and second-instar larvae of diamondback moths were released thereinto. The polyethylene cups were set in an isothermal chamber thermostated at 25° C. From the release 6 days later, the dead and alive were counted. The test was carried out with two replications of 5 insects per a plot.

For experiment [2], the system named is Common Cutworm (Spodoptera litura). The experiment in a line: Insecticidal test on common cutworm (Spodoptera litura). Format: in vivo. The note with it: 144 h, cabbage leaf immersed, second-instar larvae, counted 6 days after release, 25° C. As to the method:
Insecticidal Test on Common Cutworm (Spodoptera litura)
A piece of cabbage leaf was immersed for 30 seconds in a liquid chemical prepared by diluting a test compound to a prescribed concentration. After air-drying, the piece was put into a 7-cm polyethylene cup and second-instar larvae of common cutworms were released thereinto. The polyethylene cups were set in an isothermal chamber thermostated at 25° C. From the release 6 days later, the dead and alive were counted. The test was carried out with two replications of 5 insects per a plot.

Usually mortality stands for the share of the test organisms that died. Lower therefore signals more survivors. Turning to `Cc1cc(OS(=O)(=O)C(F)(F)F)cc(Br)c1NC(=O)c1cccc(NC(=O)c2ccccc2)c1` [Compound No. 1-369, N-(2-bromo-6-methyl-4-trifluoromethanesulfonyloxyphenyl) 3-(benzoylamino)benzamide], the mortality at 100 ppm in experiment [1] and in experiment [2] was ≥ 70% throughout. In the case of `O=C(Nc1cccc(C(=O)Nc2ccc(OC(C(F)(F)F)C(F)(F)F)nc2Br)c1)c1ccccc1` [Compound No. 1-387, N-[2-bromo-6-(2,2,2-trifluoro-1-trifluoromethylethoxy)-pyridin-3-yl]3-(benzoylamino)benzamide], the mortality at 100 ppm in experiment [1] and in experiment [2] was ≥ 70% in each case. With `O=C(Nc1cccc(C(=O)Nc2ccc3ncsc3c2)c1)c1ccccc1` [Compound No. 1-492, N-benzothiazol-6-yl 3-(benzoylamino)benzamide], the mortality at 100 ppm in experiment [2] was ≥ 70%. In the case of `O=C(Nc1c(Br)cc(OC(F)(F)C(F)C(F)(F)F)cc1Br)c1cccc(NC(=O)c2ccccc2F)c1` (stereo not drawn) [Compound No. 2-8, N-(2,6-dibromo-4-(1,1,2,3,3,3-hexafluoropropoxy)phenyl) 3-[(2-fluorobenzoyl)amino]benzamide], the mortality at 100 ppm in experiment [1] and in experiment [2] was ≥ 70% each time.

Take `Cc1cc(C(F)(C(F)(F)F)C(F)(F)F)cc(C)c1NC(=O)c1cccc(Nc2ccc([N+](=O)[O-])cc2)c1` [Compound No. 5-9, N-[2,6-dimethyl-4-(heptafluoroisopropyl)phenyl]-3-(4-nitrophenylamino)-benzamide]: the mortality at 100 ppm in experiment [1] and in experiment [2] was ≥ 70% each time.

Values taken from patent US8067638B2, “Amide derivative and insecticide containing the same” (Mitsui Chemicals, Inc., priority 2005, dated 2011).
